We go through four compounds from patent US20240336617A1, “Substituted Bimane Compounds and Methods of Use Thereof” (THE TRUSTEES OF THE UNIVERSITY OF PENNSYLVANIA, priority 2023, published 2024).

The target of series [1] is T1, αS fibrils in HEK cell lysate (Homo sapiens, UniProt P37840).
T1 construct: intein-His6 (C, cleaved yes); made in house; host or cells: Escherichia coli BL21
The series is described as follows: Selectivity of probes binding with αS fibrils in HEK cell lysate. The settings on record: 10 mg/mL total protein; probe 1 μM. The method, then: HEK 293T cells were grown on 150 mm dishes in sterile-filtered Dulbecco's modified Eagle's medium (Gibco, Thermo Fisher) supplemented with 10% fetal bovine serum (FBS), 1% penicillin/streptomycin (Mediatech, 10 mg/ml each). Cells were then washed with PBS and harvested in 5 mL PBS by scraping. Cells were pelleted by centrifugation at 1000 rpm for 5 min, and the supernatant was removed. The resulting cell pellet was re-suspended in 300-500 μL PBS buffer with 0.1% Triton X-100 (Bio-Rad) and 1×HALT protease inhibitor cocktail without EDTA (Thermo Fisher), then lysed by sonication for two 30 s cycles (cycle 1: 2 s on 2 s off, amp 50; cycle 2: 2 s on 2 s off, amp 55) using a QSonica Q700 sonicator fitted with a microtip. […]
Probes in PBS buffer (1 μM, the stock solution prepared as 10 mM in DMSO) were incubated with different αS fibril concentrations (0, 5, 10, 25 and 50 μM) in the presence of 10 mg/mL HEK cell lysate in Greiner 96 well flat black ½ area plates at 37° C. with shaking at 500 rpm for 15 min in an IKA MS3 control orbital shaker. After 15 min incubation, fluorescence intensity measurements were obtained with a Tecan Spark plate reader (Mannedorf, Switzerland) by excitation with λex/λem=424/570 nm for 7k, λex/λem=463/580 nm for 7l, λex/λem=484/620 nm for 7m, using the following parameters: excitation and emission bandwidth 5 nm, delay time 0 μs, integration time 40 μs. […]

The target in series [2] is T2, amplified αS fibrils (AFs) from PDD patient brain extracts (Homo sapiens, UniProt P37840).
T2 construct: made in house; host or cells: recombinant αS monomer, seeded with sarkosyl-insoluble extract of human frontal cortex (AD or PDD)
The series is described as follows: Fluorescence measurements with PDD patient cases (lysate, AFs, PFFs). Type of series: binding. To be noted: lysate or AFs and probe 1 μM. The method, then:
All procedures were performed in accordance with local institutional review board guidelines. Written informed consent for autopsy and analysis of tissue sample data was obtained either from patients themselves or their next of kin. Frozen postmortem human frontal cortex brain tissues from three patients diagnosed with Alzheimer's disease (AD) and three patients diagnosed with Parkinson's disease with dementia (PDD) were selected for sequential extraction of αS aggregates based on a high burden of αS pathology determined by immunohistochemical staining. In brief, 5-10 g of frontal cortical gray matter were homogenized in five volumes (W/V) of high-salt (HS) buffer (50 mM Tris-HCl pH 7.4, 750 mM NaCl, 10 mM NaF, 5 mM EDTA) with protease and protein phosphatase inhibitors, incubated on ice for 20 min and centrifuged at 100,000×g for 30 min. The pellets were then re-extracted with HS buffer, followed by sequential extractions with five volumes of 1% Triton X-100-containing HS buffer and 1% Triton X-100-containing HS buffer with 30% sucrose. The pellets were then re-suspended and homogenized in 1% sarkosyl-containing HS buffer, rotated at room temperature for 2 h or at 4° C. overnight and centrifuged at 100,000×g for 30 min. […] These final sarkosyl-insoluble fractions are referred to as “brain extracts.: The amount of αS in the brain extracts was determined by sandwich ELISA using Syn9027, a mono-clonal antibody (Mab) to αS, and the protein concentrations were examined by bicinchoninic acid (BCA) assay. […]
Brain-derived αS aggregates in extract samples from three AD and three PDD cases (FIG. 38A) were used as seeds for templated aggregation of recombinant αS monomer. […] After seven days of incubation, amplification progress was determined by removing an aliquot and diluting tenfold in DPBS to a final αS concentration of 3.5 μM. […] Equal volumes of supernatant and pellet fractions were analyzed on SDS-PAGE gels and Western blot, with amplified aggregates migrating to the pellet fraction (FIG. 38B). […]

Series [3] addresses bovine serum albumin (BSA) (Bos taurus, UniProt P02769). The series is described as follows: Fluorescence in the presence of BSA. Type of series: binding.
A further series concerns the target T3, αS fibrils (Homo sapiens, UniProt P37840).
T3 construct: intein-His6 (C, cleaved yes); made in house; host or cells: Escherichia coli BL21
The series is described as follows: Fractionation (total, supernatant, pellet) of αS fibrils with probe. The class given is binding. The settings on record: T, S, P fractions.

Series [4] can be described thus: Fluorescent quantum yield (QY) measurements. Type of series: physicochemical. To be noted: absence of αS PFFs (−); 100 μM dye.

bovine serum albumin (BSA), sequence (P02769 25-607): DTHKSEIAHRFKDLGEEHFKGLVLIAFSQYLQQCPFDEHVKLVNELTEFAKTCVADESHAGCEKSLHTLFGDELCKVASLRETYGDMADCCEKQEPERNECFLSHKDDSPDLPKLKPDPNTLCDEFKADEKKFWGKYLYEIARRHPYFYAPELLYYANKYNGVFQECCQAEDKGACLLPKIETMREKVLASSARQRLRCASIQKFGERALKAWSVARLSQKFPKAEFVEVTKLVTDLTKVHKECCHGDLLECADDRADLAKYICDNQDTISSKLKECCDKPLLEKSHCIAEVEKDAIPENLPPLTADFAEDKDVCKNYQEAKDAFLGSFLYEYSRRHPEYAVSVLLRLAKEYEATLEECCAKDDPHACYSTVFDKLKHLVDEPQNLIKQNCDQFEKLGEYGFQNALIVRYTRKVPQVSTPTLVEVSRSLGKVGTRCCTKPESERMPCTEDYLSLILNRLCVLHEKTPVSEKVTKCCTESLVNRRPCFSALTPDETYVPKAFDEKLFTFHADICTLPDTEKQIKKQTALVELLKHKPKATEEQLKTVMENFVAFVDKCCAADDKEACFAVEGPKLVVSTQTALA

As for `Cc1c(C)n2c(/C=C/c3ccc(N4CCOCC4)cc3)c(C)c(=O)n2c1=O` [Compound 7k, (E)-2,3,6-trimethyl-5-(4-morpholinostyryl)-1H,7H-pyrazolo[1,2-a]pyrazole-1,7-dione], the “detection of PFFs in cytosolic HEK cell lysate” value in series [1] is recorded as “higher fluorescence turn on”.

Take `Cc1c(C)n2c(/C=C/c3ccc(N(C)C)cc3)c(C)c(=O)n2c1=O` [Compound 7l, (E)-3-(4-(dimethylamino)styryl)-2,5,6-trimethyl-1H,7H-pyrazolo[1,2-a]pyrazole-1,7-dione]: the “detection of PFFs in cytosolic HEK cell lysate” value in series [1] is “higher fluorescence turn on”. Moreover, the “fluorescence detection of PDD amplified fibrils (AFs)” value in series [2] is reported as “higher sensitivity to PDD derived AFs”. The “fluorescence turn on with BSA” value in series [3] was “turn-on was possible”. In series [3] (10 μM probe, BSA 50 μM, excitation 418 nm), the “λmax (λem) with BSA” value is on record as 555 nm. Also, the “fractionation of αS fibrils with probe” value on αS fibrils is on record as “selectively binds to the fibrils”. For the same compound, the “Fluorescence QY” value in series [4] came out at 0.15%.

Consider `Cc1c(C)n2c(/C=C/c3ccc(N)cc3)c(C)c(=O)n2c1=O` [Compound 7j, (E)-3-(4-aminostyryl)-2,5,6-trimethyl-1H,7H-pyrazolo[1,2-a]pyrazole-1,7-dione], for which, in series [4], the “Fluorescence QY” value turned out to be 0.17%.

As to `Cc1c(C)n2c(/C=C/C=C/c3ccc(N(C)C)cc3)c(C)c(=O)n2c1=O` [Compound 7m, 3-((1E,3E)-4-(4-(dimethylamino)phenyl)buta-1,3-dien-1-yl)-2,5,6-trimethyl-1H,7H-pyrazolo[1,2-a]pyrazole-1,7-dione], the “fluorescence detection of PDD amplified fibrils (AFs)” value in series [2] was “selective increase in fluorescence for PDD AFs compared to AD AFs”. Further, the “fractionation of αS fibrils with probe” value at αS fibrils is “retained its fluorescence in the pellet fraction more than 2a”.
